# Source: patent US20240400507A1, “Substituted Indole Compounds and the Use Thereof” (TROBIO THERAPEUTICS PTY LTD, priority 2021, published 2024)
# Entries after “also recorded” stand apart in the source; their conditions may differ.
# Assays:
# [1] = molecular target: T1, Tpm4.2-containing actin microfilaments (Mus musculus, UniProt Q6IRU2); assay: Disruption of Tpm4.2-containing actin microfilaments in PMEF cells, images assessed visually; assay type: cell-based; conditions: for Filament Disruption (minimum test concentration at which filament disruption was observed): primary mouse embryonic fibroblast (PMEF) cells, 24 hours treatment, anti-tropomyosin antibody staining of Tpm4.2
# T1 construct: investigated in primary mouse embryonic fibroblast (PMEF) cells; endogenous in cells; host or cells: primary mouse embryonic fibroblast (PMEF) cells
# T1 sequence (Q6IRU2 whole entry): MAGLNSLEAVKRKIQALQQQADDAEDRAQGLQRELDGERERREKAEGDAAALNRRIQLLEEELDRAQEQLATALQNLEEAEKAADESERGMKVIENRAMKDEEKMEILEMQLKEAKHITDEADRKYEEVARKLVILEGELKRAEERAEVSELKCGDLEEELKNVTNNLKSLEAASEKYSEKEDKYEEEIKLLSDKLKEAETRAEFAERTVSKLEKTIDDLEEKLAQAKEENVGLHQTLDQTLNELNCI
# Procedure: Example 2—Anti-tropomyosin activity of compounds of formula (I) The ability of compounds of the disclosure to disrupt Tpm4.2-containing actin microfilaments was investigated in primary mouse embryonic fibroblast (PMEF) cells. Cells were seeded at 3×10^4 cells per well in a volume of 1000 μL complete media onto a 12 well plate containing 13 mm coverslips and left to plate down for 24 hours prior to treatment. Cells were then treated with DMSO and two concentrations of the test compounds. 24 hours post-treatment, cells were fixed with 16% paraformaldehyde (PBS) and stained with rabbit polyclonal anti-tropomyosin 6/9d antibody to visualise Tpm4.2. Single plane images were obtained using the Olympus IX83 epi-fluorescence microscope. Ten fields of view were collected for both Tpm4.2 fluorophore and 488-Atto-Phalloidin with each treatment condition. The images were assessed visually to determine if the Tpm4.2 filament network had been disrupted under the treatment condition (Table 1).
# [2] = molecular target: T1, Tpm4.2-containing actin microfilaments; assay: as above; assay type: cell-based; conditions: PMEF cells stably expressing Tpm4.2 labelled with the NeonGreen fluorophore (footnote a)
Structure (SMILES),Filament Disruption (minimum test concentration at which filament disruption was observed) [1] [µM],other results
"CC(CO)(CO)NCCn1ccc2ccc(OCCc3ccc(F)c(F)c3)cc21 [Compound 24, 2-methyl-2-((2-(6-(3,4-difluorophenethoxy)-1H-indol-1-yl)ethyl)amino)propane-1,3-diol]",2.5,–
"CC(CO)(CO)NCCn1ccc2ccc(NCCc3ccc(F)cc3)cc21 [Compound 13, 2-((2-(6-((4-fluorophenethyl)amino)-1H-indol-1-yl)ethyl)amino)-2-methylpropane-1,3-diol]",2.0,"Effect on Tpm4.2 filament network in representative image (FIG. 1) ([1]; PMEF cells, treatment versus control condition): parallel filament bundles observed in the control condition are lost and punctate aggregations of Tpm4.2 are observed near the nucleus; also recorded: disruption of the Tpm4.2 filament network"
"COc1ccccc1CCOc1ccc2ccn(CCNC(C)(CO)CO)c2c1 [Compound 19, 2-methyl-2-((2-(6-(2-methoxyphenethoxy)-1H-indol-1-yl)ethyl)amino)propane-1,3-diol]",7.0,–
"Cc1cccc(CCOc2ccc3ccn(CCNC(C)(CO)CO)c3c2)c1 [Compound 17, 2-methyl-2-((2-(6-(3-methylphenethoxy)-1H-indol-1-yl)ethyl)amino)propane-1,3-diol]",2.0,–
"OCCNCCn1ccc2ccc(OCCc3ccc(F)cc3)cc21 [Compound 9, 2-((2-(6-(4-fluorophenethoxy)-1H-indol-1-yl)ethyl)amino)ethan-1-ol]",4.0,–
"Cc1ccc(CCOc2ccc3ccn(CCNC(C)(CO)CO)c3c2)cc1 [Compound 18, 2-methyl-2-((2-(6-(4-methylphenethoxy)-1H-indol-1-yl)ethyl)amino)propane-1,3-diol]",5.0,–
"CC(CO)(CO)NCCn1ccc2ccc(OCCc3ccccc3F)cc21 [Compound 2, 2-((2-(6-(2-fluorophenethoxy)-1H-indol-1-yl)ethyl)amino)-2-methylpropane-1,3-diol]",–,Filament Disruption (minimum test concentration at which filament disruption was observed) [2]: 4.0^a μM
"COc1cccc(CCOc2ccc3ccn(CCNC(C)(CO)CO)c3c2)c1 [Compound 20, 2-methyl-2-((2-(6-(3-methoxyphenethoxy)-1H-indol-1-yl)ethyl)amino)propane-1,3-diol]",2.0,–
"C[C@@H](CO)NCCn1ccc2ccc(OCCc3ccc(F)cc3)cc21 [Compound 7, (S)-2-((2-(6-(4-fluorophenethoxy)-1H-indol-1-yl)ethyl)amino)propan-1-ol]",2.0,–
"CC(CO)(CO)NCCn1ccc2ccc(OCCc3cccc(F)c3)cc21 [Compound 3, 2-((2-(6-(3-fluorophenethoxy)-1H-indol-1-yl)ethyl)amino)-2-methylpropane-1,3-diol]",–,Filament Disruption (minimum test concentration at which filament disruption was observed) [2]: 4.0^a μM
"Fc1ccc(CCOc2ccc3ccn(CCCN4CCOCC4)c3c2)cc1 [Compound 11, 4-(3-(6-(4-fluorophenethoxy)-1H-indol-1-yl)propyl)morpholine]",20,–
"COc1ccc(CCOc2ccc3ccn(CCNC(C)(CO)CO)c3c2)cc1 [Compound 21, 2-methyl-2-((2-(6-(4-methoxyphenethoxy)-1H-indol-1-yl)ethyl)amino)propane-1,3-diol]",2.5,–
"CC(CO)(CO)NCCn1ccc2ccc(C(=O)NCc3ccc(F)cc3)cc21 [Compound 14, 1-(2-((1,3-dihydroxy-2-methylpropan-2-yl)amino)ethyl)-N-(4-fluorobenzyl)-1H-indole-6-carboxamide]",2.0,–
"CC(CO)(CO)NCCn1ccc2ccc(C(=O)OCc3ccc(F)cc3)cc21 [Compound 15, 4-fluorobenzyl 1-(2-((1,3-dihydroxy-2-methylpropan-2-yl)amino)ethyl)-1H-indole-6-carboxylate]",6.5,–
"CC(C)(C)NCCn1ccc2ccc(OCCc3ccc(F)cc3)cc21 [Compound 10, N-(2-(6-(4-fluorophenethoxy)-1H-indol-1-yl)ethyl)-2-methylpropan-2-amine]",2.0,–
"CC(C)(CO)NCCn1ccc2ccc(OCCc3ccc(F)cc3)cc21 [Compound 5, 2-((2-(6-(4-fluorophenethoxy)-1H-indol-1-yl)ethyl)amino)-2-methylpropan-1-ol]",2.0,–
"COCC(C)(COC)NCCn1ccc2ccc(OCCc3ccc(F)cc3)cc21 [Compound 12, N-(2-(6-(4-fluorophenethoxy)-1H-indol-1-yl)ethyl)-1,3-dimethoxy-2-methylpropan-2-amine]",9.0,–
"Cc1ccc(CCOc2ccc3ccn(CCNC(C)(CO)CO)c3c2)cc1C [Compound 25, 2-methyl-2-((2-(6-(3,4-dimethylphenethoxy)-1H-indol-1-yl)ethyl)amino)propane-1,3-diol]",2.5,–
"CC(CO)(CO)NCCn1ccc2ccc(OCCc3ccccc3)cc21 [Compound 1, 2-((2-(6-phenethoxy-1H-indol-1-yI)ethyl)amino)-2-methylpropane-1,3-diol]",–,Filament Disruption (minimum test concentration at which filament disruption was observed) [2]: 4.0^a μM
"CC(CO)(CO)NCCn1ccc2ccc(OCCc3ccccc3C(F)(F)F)cc21 [Compound 22, 2-methyl-2-((2-(6-(2-(trifluoromethyl)phenethoxy)-1H-indol-1-yl)ethyl)amino)propane-1,3-diol]",2.5,–
"OCC(CO)NCCn1ccc2ccc(OCCc3ccc(F)cc3)cc21 [Compound 6, 2-((2-(6-(4-fluorophenethoxy)-1H-indol-1-yl)ethyl)amino)propane-1,3-diol]",4.0,–
"C[C@H](CO)NCCn1ccc2ccc(OCCc3ccc(F)cc3)cc21 [Compound 8, (R)-2-((2-(6-(4-fluorophenethoxy)-1H-indol-1-yl)ethyl)amino)propan-1-ol]",2.0,–
"Cc1ccccc1CCOc1ccc2ccn(CCNC(C)(CO)CO)c2c1 [Compound 16, 2-methyl-2-((2-(6-(2-methylphenethoxy)-1H-indol-1-yl)ethyl)amino)propane-1,3-diol]",7.5,–
"CC(CO)(CO)NCCn1ccc2ccc(OCCc3ccc(F)cc3)cc21 [Compound 4, 2-((2-(6-(4-fluorophenethoxy)-1H-indol-1-yl)ethyl)amino)-2-methylpropane-1,3-diol]",–,Filament Disruption (minimum test concentration at which filament disruption was observed) [2]: 3.0^a μM
